Source: PMC12562321 (2025)

Experiments:
[1] = tested on: OA63 (DNA, aptamer) CCGGGTGGGTGGGTGTGGTCTTGTATTTGATTATGTCTGTCGGCGCTTTTTGGCCCCTTCGTT; test: electrochemical aptasensor (DPV); conditions: 150 mM NaCl, 2 mM Mg2+; 50 mM Tris pH 7.5, 25 °C, 30 min; capture probe P63_8; 5-200 nM OA
[2] = tested on: OA31 (DNA, aptamer) CCACCAACGAGAGTCAGAAAACCATGGTGGG; test: electrochemical aptasensor (DPV); conditions: 150 mM NaCl, 2 mM Mg2+, capture probe P31_14

SMILES	binding [1]	binding ([2]; 50 mM Tris pH 7.5, 4 °C, 5 min, 5-200 nM OA)	binding ([2]; 50 mM Tris pH 7.5, sensitivity 2 times lower than for OA)
C=C1[C@@H](O)[C@@H]2O[C@]3(CC[C@H](/C=C/[C@@H](C)[C@@H]4CC(C)=C[C@@]5(O[C@H](C[C@@](C)(O)C(=O)O)CC[C@H]5O)O4)O3)CC[C@H]2O[C@@H]1[C@@H](O)C[C@H](C)[C@H]1O[C@@]2(CCCCO2)CC[C@H]1C	yes	yes	
C=C1[C@@H](O)[C@@H]2O[C@]3(CC[C@H](/C=C/[C@@H](C)[C@@H]4CC(C)=C[C@@]5(O[C@H](C[C@@](C)(O)C(=O)O)CC[C@H]5O)O4)O3)CC[C@H]2O[C@@H]1[C@@H](O)C[C@H](C)[C@H]1O[C@@]2(CC[C@H]1C)OCCC[C@H]2C			yes
